This note sets out measurements from publication PMC8539251, “Peimine, an Anti-Inflammatory Compound from Chinese Herbal Extracts, Modulates Muscle-Type Nicotinic Receptors” (International Journal of Molecular Sciences, 2021).

pEC50, pIC50: −log10 of the molar value.

As usually defined, the pIC50 is the IC50 on a negative log10 scale, so that one unit is a factor of ten. A lower pIC50 goes with a large IC50. As usually defined, the pEC50 is the negative decadic logarithm of the EC50, by convention in mol/L. High values mean a small EC50, low ones a large EC50.

The target of test [1] is T1, muscle-type nicotinic acetylcholine receptor (nAChR) (Torpedo marmorata, UniProt P02711+Q6S3H8+Q6S3H9+Q6S3I0).
T1 construct: gene CHRNA1; purified native nAChR reconstituted in asolectin lipids, microtransplanted to Xenopus oocytes; with β1, γ and δ nAChR subunits (heteropentamer 2α1, β1, δ, γ)
T1 sequence (P02711 25-461): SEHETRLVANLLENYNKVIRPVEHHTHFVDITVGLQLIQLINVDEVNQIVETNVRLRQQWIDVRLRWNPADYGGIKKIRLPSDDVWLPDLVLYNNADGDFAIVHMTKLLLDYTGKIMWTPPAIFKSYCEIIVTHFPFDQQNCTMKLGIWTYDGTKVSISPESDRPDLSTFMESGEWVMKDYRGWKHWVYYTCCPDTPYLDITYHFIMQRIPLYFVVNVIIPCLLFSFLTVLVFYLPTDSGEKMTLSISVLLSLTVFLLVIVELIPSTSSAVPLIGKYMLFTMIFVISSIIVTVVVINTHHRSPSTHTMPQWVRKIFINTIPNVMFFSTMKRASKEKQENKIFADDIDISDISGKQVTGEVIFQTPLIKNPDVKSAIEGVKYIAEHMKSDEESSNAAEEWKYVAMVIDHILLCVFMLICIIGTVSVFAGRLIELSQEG
T1 sequence (Q6S3I0 25-493): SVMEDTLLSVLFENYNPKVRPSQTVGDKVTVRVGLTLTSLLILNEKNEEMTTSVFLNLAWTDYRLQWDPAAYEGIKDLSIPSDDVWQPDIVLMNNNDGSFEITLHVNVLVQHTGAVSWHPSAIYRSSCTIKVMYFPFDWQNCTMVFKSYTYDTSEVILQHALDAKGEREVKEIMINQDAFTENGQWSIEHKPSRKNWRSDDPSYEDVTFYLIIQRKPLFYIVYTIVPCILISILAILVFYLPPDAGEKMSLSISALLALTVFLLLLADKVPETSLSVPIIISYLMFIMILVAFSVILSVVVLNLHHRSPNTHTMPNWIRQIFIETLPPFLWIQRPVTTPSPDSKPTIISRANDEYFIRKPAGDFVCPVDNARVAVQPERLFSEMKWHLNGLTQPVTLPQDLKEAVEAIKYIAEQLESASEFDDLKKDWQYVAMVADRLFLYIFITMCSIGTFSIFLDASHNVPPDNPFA
T1 sequence (Q6S3H9 18-505): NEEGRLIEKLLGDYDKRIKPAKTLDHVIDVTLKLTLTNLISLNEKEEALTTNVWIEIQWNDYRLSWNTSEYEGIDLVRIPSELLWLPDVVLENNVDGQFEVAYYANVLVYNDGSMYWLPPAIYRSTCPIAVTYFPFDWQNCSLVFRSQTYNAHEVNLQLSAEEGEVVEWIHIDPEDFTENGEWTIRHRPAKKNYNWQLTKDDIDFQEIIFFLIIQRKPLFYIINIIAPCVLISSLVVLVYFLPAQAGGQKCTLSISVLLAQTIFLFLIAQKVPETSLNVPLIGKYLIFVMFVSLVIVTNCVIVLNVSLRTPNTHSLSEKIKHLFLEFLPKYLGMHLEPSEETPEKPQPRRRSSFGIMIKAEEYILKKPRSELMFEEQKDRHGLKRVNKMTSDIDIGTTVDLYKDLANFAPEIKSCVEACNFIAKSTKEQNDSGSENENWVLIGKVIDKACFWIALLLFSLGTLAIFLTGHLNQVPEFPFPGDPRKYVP
T1 sequence (Q6S3H8 22-522): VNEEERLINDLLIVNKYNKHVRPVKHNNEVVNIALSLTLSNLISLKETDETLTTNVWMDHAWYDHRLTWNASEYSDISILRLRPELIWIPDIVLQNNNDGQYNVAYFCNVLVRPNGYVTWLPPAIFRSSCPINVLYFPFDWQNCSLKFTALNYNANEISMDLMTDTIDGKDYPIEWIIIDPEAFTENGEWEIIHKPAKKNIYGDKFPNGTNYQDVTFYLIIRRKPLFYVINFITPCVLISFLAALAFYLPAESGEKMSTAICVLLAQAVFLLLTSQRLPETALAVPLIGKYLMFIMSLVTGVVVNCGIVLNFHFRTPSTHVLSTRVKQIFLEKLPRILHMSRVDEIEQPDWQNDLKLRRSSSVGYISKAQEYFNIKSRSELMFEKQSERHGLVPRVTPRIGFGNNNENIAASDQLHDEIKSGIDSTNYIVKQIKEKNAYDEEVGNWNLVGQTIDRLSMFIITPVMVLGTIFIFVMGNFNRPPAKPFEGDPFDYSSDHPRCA
Briefly: two-electrode voltage clamp in Xenopus oocytes, inhibition of […] ACh-elicited currents (peak; steady-state IC50 […]). Type of test: cell-based.

Test [2] has as its target T1, muscle-type nicotinic acetylcholine receptor (nAChR). The test is described as follows: two-electrode voltage clamp in Xenopus oocytes, agonist concentration-response. The class given is cell-based.

The compound `C[C@H]1CC[C@@H]2N(C1)C[C@H]1[C@@H]3C[C@H]4[C@@H](C[C@H](O)[C@H]5C[C@@H](O)CC[C@@]54C)[C@@H]3CC[C@@H]1[C@]2(C)O` [Pm, Peimine] gave a pIC50 in test [1] of 5.54.
`CC(=O)OCC[N+](C)(C)C` [ACh, acetylcholine] showed a pEC50 in test [2] of 4.51.
